pEC50: −log10 of the molar value.
Tests used:
human A2B = biological target: T1, human A2B (Homo sapiens, UniProt P29275); experiment: cAMP HTRF assay for Gs coupled receptor, agonist test; assay type: cell-based; details: agonist activity; HEK293 cells expressing recombinant human A2B; read-out: A2BAR EC50
T1 construct: expressed in transfected cells; host or cells: HEK293
T1 sequence (P29275 1-332): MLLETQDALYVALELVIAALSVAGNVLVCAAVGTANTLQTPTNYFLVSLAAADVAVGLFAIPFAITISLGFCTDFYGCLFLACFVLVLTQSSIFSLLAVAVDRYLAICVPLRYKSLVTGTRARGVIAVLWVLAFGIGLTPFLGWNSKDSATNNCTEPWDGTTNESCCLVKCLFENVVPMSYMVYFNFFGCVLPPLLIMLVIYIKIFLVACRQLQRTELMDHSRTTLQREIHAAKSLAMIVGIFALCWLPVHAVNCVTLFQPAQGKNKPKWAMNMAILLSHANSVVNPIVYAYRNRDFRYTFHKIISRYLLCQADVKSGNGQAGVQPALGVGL
In short: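 Recombinant cells were incubated 30 min at room temperature with increasing agonist concentrations. Lysis buffer with cAMP-d2 and anti-cAMP cryptate was added, with 1 h at room temperature before the HTRF fluorescence ratio was read. Reference compounds were run in parallel.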

[1] = biological target: T2, human Adenosine A1 receptor (Homo sapiens, UniProt P30542); experiment: GTPγS scintillation proximity assay, agonist testing; assay type: biochemical; details: agonist activity; membrane extracts of CHO-K1 cells expressing recombinant human A1; read-out: A1AR EC50
T2 construct: host or cells: CHO-K1
T2 sequence (P30542 1-326): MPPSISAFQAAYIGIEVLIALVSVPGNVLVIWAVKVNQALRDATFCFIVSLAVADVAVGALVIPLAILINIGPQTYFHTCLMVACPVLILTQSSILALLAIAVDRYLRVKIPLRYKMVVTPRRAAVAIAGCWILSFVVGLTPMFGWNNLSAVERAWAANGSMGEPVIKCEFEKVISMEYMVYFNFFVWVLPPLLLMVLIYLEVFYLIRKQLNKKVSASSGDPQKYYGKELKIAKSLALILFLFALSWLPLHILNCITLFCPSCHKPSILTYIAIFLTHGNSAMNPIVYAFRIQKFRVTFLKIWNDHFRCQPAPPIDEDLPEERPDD
In short: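 Agonist-stimulated [35S]GTPγS binding to membranes of CHO-K1 cells expressing recombinant human A1 receptor, in 20 mM HEPES pH 7.4, 100 mM NaCl, 10 μg/mL saponin, with receptor-optimized MgCl2 and GDP. GTPγ[35S] 0.1 nM final with WGA SPA beads; 1 h at room temperature, then scintillation counting.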

| SMILES | pEC50 (human A2B) | pEC50 [1] |
| --- | --- | --- |
| COCCOc1ccc(-c2c(C#N)c(Sc3cccnc3)nc(N3CC(F)C3)c2C#N)cc1 [Compound 245] | < 5.00 | 8.69 |
| COCCOc1ccc(-c2c(C#N)c(N)nc(Sc3cccnc3)c2C#N)cc1 [Compound 246] | < 5.00 | < 5.00 |
| COCCOc1ccc(-c2c(C#N)c(N)nc(S[C@@H](C)c3cccnc3)c2C#N)cc1 [Compound 247] | < 5.00 | 8.92 |
| COCCOc1ccc(-c2c(C#N)c(N)nc(S[C@H](C)c3cccnc3)c2C#N)cc1 [Compound 248] | < 5.00 | 6.56 |
| COCCOc1ccc(-c2c(C#N)c(SCc3cncnc3)nc(N3CC(F)C3)c2C#N)cc1 [Compound 249] | < 5.00 | < 5.00 |
| COCCOc1ccc(-c2c(C#N)c(SCc3ccccn3)nc(N3CC(F)C3)c2C#N)cc1 [Compound 250] | < 5.00 | 7.48 |
| COCCOc1ccc(-c2c(C#N)c(SCc3ncccn3)nc(N3CC(F)C3)c2C#N)cc1 [Compound 251] | < 5.00 | < 5.00 |
| COCCOc1ccc(-c2c(C#N)c(SCc3cnccn3)nc(N3CC(F)C3)c2C#N)cc1 [Compound 252] | < 5.00 | < 5.00 |
| CN(C)c1nc(SCc2cccnc2)c(C#N)c(-c2ccc(OCCOC(F)F)cc2)c1C#N [Compound 253] | < 5.00 | < 5.00 |
| CN(C)c1nc(SCc2cccnc2)c(C#N)c(-c2ccc(OC(F)(F)CO)cc2)c1C#N [Compound 254] | < 5.00 | < 5.00 |
| N#Cc1c(SCc2cccnc2)nc(N2CC(F)C2)c(C#N)c1-c1ccc(OC(F)(F)CO)cc1 [Compound 255] | 6.36 | < 5.00 |
| N#Cc1c(SCc2cccnc2)nc(N2CC(F)(F)C2)c(C#N)c1-c1ccc(OC(F)(F)CO)cc1 [Compound 256] | < 5.00 | < 5.00 |
| N#Cc1c(SCc2cccnc2)nc(N2CCCC2)c(C#N)c1-c1ccc(OCCOC(F)F)cc1 [Compound 257] | < 5.00 | < 5.00 |
| CNc1nc(SCc2cccnc2)c(C#N)c(-c2ccc(OCCOC(F)F)cc2)c1C#N [Compound 258] | < 5.00 | < 5.00 |
| N#Cc1c(SCc2cccnc2)nc(N2CCC2)c(C#N)c1-c1ccc(OC(F)(F)CO)cc1 [Compound 259, 2-(Azetidin-1-yl)-4-(4-(1,1-difluoro-2-hydroxyethoxy)phenyl)-6-((pyridin-3-ylmethyl)thio)pyridine-3,5-dicarbonitrile] | 6.70 | < 5.00 |
| CNc1nc(SCc2cccnc2)c(C#N)c(-c2ccc(OC(F)(F)CO)cc2)c1C#N [Compound 260] | 7.47 | 8.47 |
| N#Cc1c(SCc2cccnc2)nc(N2CC(O)C2)c(C#N)c1-c1ccc(OC(F)(F)CO)cc1 [Compound 261] | < 5.00 | < 5.00 |
| N#Cc1c(SCc2cccnc2)nc(N2CCC2)c(C#N)c1-c1ccc(OCCOC(F)F)cc1 [Compound 262] | < 5.00 | < 5.00 |
| N#Cc1c(SCc2cccnc2)nc(N2CCCC2)c(C#N)c1-c1ccc(OC(F)(F)CO)cc1 [Compound 263] | < 5.00 | < 5.00 |
| N#Cc1c(SCc2cccnc2)nc(N2CC(F)(F)C2)c(C#N)c1-c1ccc(OCCOC(F)F)cc1 [Compound 264] | < 5.00 | < 5.00 |
| N#Cc1c(SCc2cccnc2)nc(N2CC(O)C2)c(C#N)c1-c1ccc(OCCOC(F)F)cc1 [Compound 265] | < 5.00 | 7.90 |
| N#Cc1c(SCc2cccnc2)nc(N2CC(F)C2)c(C#N)c1-c1ccc(OCCOC(F)F)cc1 [Compound 266] | < 5.00 | 5.97 |
| COCCOc1ccc(-c2c(C#N)c(SCC3COC3)nc(N3CC(F)C3)c2C#N)cc1 [Compound 267] | < 5.00 | 7.11 |
| N#Cc1c(SCc2cccnc2)nc(N2CC(O)C2)c(C#N)c1-c1ccc(OC2COC2)cc1 [Compound 268] | 7.25 | 8.94 |
| COCCOc1ccc(-c2c(C#N)c(SCC3COC3)nc(N3CC(F)(F)C3)c2C#N)cc1 [Compound 269] | < 5.00 | 6.21 |

| SMILES | pEC50 (human A2B) | pEC50 [1] |
| --- | --- | --- |
| COCCOc1ccc(-c2c(C#N)c(SCC3COC3)nc(N3CC(O)C3)c2C#N)cc1 [Compound 270] | < 5.00 | 6.69 |
| N#Cc1c(SCc2cccnc2)nc(N2CC(F)C2)c(C#N)c1-c1ccc(OC2COC2)cc1 [Compound 271] | 6.94 | 7.52 |
| N#Cc1c(SCc2cccnc2)nc(N2CC(F)(F)C2)c(C#N)c1-c1ccc(OC2COC2)cc1 [Compound 272] | 6.51 | 7.66 |
| N#Cc1c(SCC2COC2)nc(N2CC(F)(F)C2)c(C#N)c1-c1ccc(OCCO)cc1 [Compound 273] | < 5.00 | 6.53 |
| N#Cc1c(SCC2COC2)nc(N2CC(O)C2)c(C#N)c1-c1ccc(OCCO)cc1 [Compound 274] | < 5.00 | 7.12 |
| N#Cc1c(SCC2COC2)nc(N2CC(F)C2)c(C#N)c1-c1ccc(OCCO)cc1 [Compound 275] | < 5.00 | 7.25 |
| COCCOc1ccc(-c2c(C#N)c(SCc3cccnc3)nc(N3CC(F)(F)C3)c2C#N)cc1 [Compound 276] | < 5.00 | 7.01 |
| COCCOc1ccc(-c2c(C#N)c(SCc3cccnc3)nc(N3CC(F)C3)c2C#N)cc1 [Compound 277] | < 5.00 | 7.62 |
| COCCOc1ccc(-c2c(C#N)c(SCc3cccnc3)nc(N3CC(O)C3)c2C#N)cc1 [Compound 278] | < 5.00 | 7.86 |
| COc1nc(SCC2COC2)c(C#N)c(-c2ccc(OCCO)cc2)c1C#N [Compound 281] | < 5.00 | 6.08 |
| COc1nc(SCc2cccnc2)c(C#N)c(-c2ccc(OCCO)cc2)c1C#N [Compound 282] | 7.70 | 7.21 |
| COCCOc1ccc(-c2c(C#N)c(OC)nc(SCc3cccnc3)c2C#N)cc1 [Compound 283] | < 5.00 | < 5.00 |
| CNc1nc(SCc2cccnc2)c(C#N)c(-c2ccc(OCCOC)cc2)c1C#N [Compound 284] | < 5.00 | < 5.00 |
| CC(Sc1nc(N)c(C#N)c(-c2ccc(OC3COC3)cc2)c1C#N)C1COC1 (centres unmarked) [Compound 285] | < 5.00 | 6.02 |
| COCCOc1ccc(-c2c(C#N)c(SCc3cccnc3)nc(N(C)C)c2C#N)cc1 [Compound 286] | < 5.00 | < 5.00 |
| N#Cc1c(OCC2COC2)nc(N2CCC2)c(C#N)c1-c1ccc(OC2COC2)cc1 [Compound 287, 2-(azetidin-1-yl)-6-(oxetan-3-ylmethoxy)-4-(4-(oxetan-3-yloxy)phenyl)pyridine-3,5-dicarbonitrile] | < 5.00 | 6.09 |
| CNc1nc(OCC2COC2)c(C#N)c(-c2ccc(OC3COC3)cc2)c1C#N [Compound 288] | < 5.00 | 6.51 |
| N#Cc1c(N)nc(SCC2COC2)c(C#N)c1-c1ccc(OC(F)(F)COC(F)F)cc1 [Compound 289, 2-Amino-4-(4-(2-(difluoromethoxy)-1,1-difluoroethoxy)phenyl)-6-((oxetan-3-ylmethyl)thio)pyridine-3,5-dicarbonitrile] | < 5.00 | < 5.00 |
| N#Cc1c(N)nc(OC[C@H]2CCOC2)c(C#N)c1-c1ccc(OC2COC2)cc1 [Compound 290] | < 5.00 | 6.58 |
| N#Cc1c(N)nc(SCC2OCCCO2)c(C#N)c1-c1ccc(OC2COC2)cc1 [Compound 291] | 5.00 | 6.68 |
| N#Cc1c(SCC2COC2)nc(N2CCCC2)c(C#N)c1-c1ccc(OC2COC2)cc1 [Compound 292] | < 5.00 | 7.03 |
| N#Cc1c(SCC2COC2)nc(N2CCC2)c(C#N)c1-c1ccc(OC2COC2)cc1 [Compound 293] | < 5.00 | 7.14 |
| COc1nc(SCC2COC2)c(C#N)c(-c2ccc(OC3COC3)cc2)c1C#N [Compound 294, 2-Methoxy-6-((oxetan-3-ylmethyl)thio)-4-(4-(oxetan-3-yloxy)phenyl)pyridine-3,5-dicarbonitrile] | < 5.00 | 7.60 |
| N#Cc1c(N)nc(SCc2cccnc2)c(C#N)c1-c1ccc(O[C@H]2C[C@H](O)C2)cc1 [Compound 295, 2-Amino-4-(4-((1r,3r)-3-hydroxycyclobutoxy)phenyl)-6-((pyridin-3-ylmethyl)thio)pyridine-3,5-dicarbonitrile] | 8.01 | 8.80 |
